molecular target: T1, RIPK2 enzyme (Homo sapiens, UniProt O43353); assay: RIPK2 inhibition (ADP-Glo Kinase Assay); type: biochemical; details: RIPK2 5 nM, ATP 150 μM, MBP substrate, read-out: RIPK2 IC50
T1 construct: purchased Carna 09-128
Outline: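 Human RIPK2 (5 nM) preincubated with compound 30 min at room temperature in 50 mM HEPES pH 7.5, 10 mM MgCl2, 2 mM DTT, 1 mM EGTA, 0.01% Brij-35, 0.05% BSA; native swine MBP as substrate. ADP formed quantified by ADP-Glo luminescence; percent inhibition relative to DMSO and no-enzyme controls.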

T1 sequence (O43353 1-299 limits assumed): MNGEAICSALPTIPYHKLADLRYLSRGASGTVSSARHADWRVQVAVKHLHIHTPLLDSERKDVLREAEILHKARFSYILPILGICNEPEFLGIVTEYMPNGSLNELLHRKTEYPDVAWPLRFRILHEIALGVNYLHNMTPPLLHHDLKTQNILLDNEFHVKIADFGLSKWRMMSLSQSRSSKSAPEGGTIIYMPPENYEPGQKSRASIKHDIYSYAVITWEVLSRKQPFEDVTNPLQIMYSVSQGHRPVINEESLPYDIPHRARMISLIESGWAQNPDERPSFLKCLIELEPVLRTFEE

Compound | IC50 [nM]
CN1[C@@H]2CC[C@H]1C[C@@H](Oc1ccc3ncnc(Oc4cnc(CC(=O)Nc5cnn(C(C)(C)C)c5)c(F)c4)c3c1)C2 [Compound 62, N-(1-(tert-butyl)-1H-pyrazol-4-yl)-2-(3-fluoro-5-((6-(((1R,3r,5S)-8-methyl-8-azabicyclo [3.2.1]octan-3-yl)oxy)quinazolin-4-yl)oxy)pyridin-2-yl)acetamide] | 13.2
CC(C)(C)n1cc(NC(=O)Cc2ncc(Oc3ncnc4ccc(O[C@H]5CCOC5)cc34)cc2F)cn1 [Compound 64, (S)-N-(1-(tert-butyl)-1H-pyrazol-4-yl)-2-(3-fluoro-5-((6-((tetrahydrofuran-3-yl)oxy)quinazolin-4-yl)oxy)pyridin-2-yl)acetamide] | 67.5
CC(C)(C)c1cc(NC(=O)Cc2ccc(Oc3ccnc4ccc(S(C)(=N)=O)cc34)cc2F)[nH]n1 (stereo not drawn) [Compound 65, N-(5-(tert-butyl)-1H-pyrazol-3-yl)-2-(2-fluoro-4-((6-(S-methylsulfonimidoyl)quinolin-4-yl)oxy)phenyl) acetamide] | < 2.5
CC(C)(C)n1cc(NC(=O)Cc2ccc(Oc3ccnc4ccc(S5(=O)=NCCC5)cc34)cc2F)cn1 (stereo not drawn) [Compound 66, N-(1-(tert-butyl)-1H-pyrazol-4-yl)-2-(2-fluoro-4-((6-(1-oxido-4,5-dihydro-3H-1λ^6-isothiazol-1-yl)quinolin-4-yl)oxy)phenyl) acetamide] | < 2.5
CC(C)(C)n1cc(NC(=O)Cc2ccc(Oc3ccnc4ccc(S5(=O)=NCCCC5)cc34)cc2F)cn1 (stereo not drawn) [Compound 67, N-(1-(tert-butyl)-1H-pyrazol-4-yl)-2-(2-fluoro-4-((6-(1-oxido-3,4,5,6-tetrahydro-1λ^6,2-thiazin-1-yl)quinolin-4-yl)oxy)phenyl)acetamide] | < 2.5
CC(C)(C)n1cc(NC(=O)Cc2ccc(Oc3ccnc4ccc(S(C)(=O)=NC#N)cc34)cc2F)cn1 (stereo not drawn) [Compound 71, N-(1-(tert-butyl)-1H-pyrazol-4-yl)-2-(4-((6-(N-cyano-S-methylsulfonimidoyl)quinolin-4-yl)oxy)-2-fluorophenyl)acetamide] | 9.1
CCS(=O)(=NC)c1ccc2nccc(Oc3ccc(CC(=O)Nc4cnn(C(C)(C)C)c4)c(F)c3)c2c1 (stereo not drawn) [Compound 74, N-(1-(tert-butyl)-1H-pyrazol-4-yl)-2-(2-fluoro-4-((6-(N-methylethylsulfonimidoyl)quinolin-4-yl)oxy)phenyl)acetamide] | 4
CC(C)(C)n1cc(NC(=O)Cc2ccc(Oc3ccnc4ccc(CS(C)(=O)=O)cc34)cc2F)cn1 [Compound 75, N-(1-(tert-butyl)-1H-pyrazol-4-yl)-2-(2-fluoro-4-((6-((methylsulfonyl)methyl)quinolin-4-yl)oxy)phenyl)acetamide] | < 2.5
Cc1cc(CC(=O)Nc2cnn(C(C)(C)C)c2)ccc1Oc1ccnc2ccc(S(C)(=N)=O)cc12 (stereo not drawn) [Compound 76, N-(1-(tert-butyl)-1H-pyrazol-4-yl)-2-(3-methyl-4-((6-(S-methylsulfonimidoyl)quinolin-4-yl)oxy)phenyl) acetamide] | < 2.5
CN=S(C)(=O)c1ccc2nccc(Oc3ccc(CC(=O)Nc4cnn(C(C)(C)C)c4)cc3C)c2c1 (stereo not drawn) [Compound 77, N-(1-(tert-butyl)-1H-pyrazol-4-yl)-2-(4-((6-(N,S-dimethylsulfonimidoyl)quinolin-4-yl)oxy)-3-methylphenyl)acetamide] | < 2.5
CN1CCC(Oc2ccc3nccc(Oc4ccc(CC(=O)Nc5cnn(C(C)(C)C)c5)c(F)c4)c3c2)CC1 [Compound 79, N-(1-(tert-butyl)-1H-pyrazol-4-yl)-2-(2-fluoro-4-((6-((1-methyl-piperidin-4-yl)oxy)quinolin-4-yl)oxy)phenyl) acetamide] | < 2.5
Cc1cc(CC(=O)Nc2cnn(C(C)(C)C)c2)ccc1Oc1ncnc2ccc(OC3CCNCC3)cc12 [Compound 85, N-(1-(tert-butyl)-1H-pyrazol-4-yl)-2-(3-methyl-4-((6-(piperidin-4-yloxy)quinazolin-4-yl)oxy)phenyl) acetamide] | 5.1
CC(C)(C)n1cc(NC(=O)Cc2ccc(Oc3ccnc4ccc(S(C)(=O)=O)cc34)c(Cl)c2)cn1 [Compound 89, N-(1-(tert-butyl)-1H-pyrazol-4-yl)-2-(3-chloro-4-((6-(methylsulfonyl)quinolin-4-yl)oxy)phenyl)acetamide] | < 2.5
CCN1CCC(Oc2ccc3nccc(Oc4ccc(CC(=O)Nc5cnn(C(C)(C)C)c5)cc4C)c3c2)CC1 [Compound 94, N-(1-(tert-butyl)-1H-pyrazol-4-yl)-2-(4-((6-((1-ethylpiperidin-4-yl)oxy)quinolin-4-yl)oxy)-3-methylphenyl) acetamide] | < 2.5
Cc1cc(CC(=O)Nc2cnn(C(C)(C)C)c2)ccc1Oc1ccnc2ccc(OC3CCN(C4CC4)CC3)cc12 [Compound 95, N-(1-(tert-butyl)-1H-pyrazol-4-yl)-2-(4-((6-((1-cyclopropyl-piperidin-4-yl)oxy)quinolin-4-yl)oxy)-3-methylphenyl) acetamide] | < 2.5
Cc1cc(CC(=O)Nc2cnn(C(C)(C)C)c2)ccc1Oc1ccnc2ccc(OC3CCN(C4COC4)CC3)cc12 [Compound 96, N-(1-(tert-butyl)-1H-pyrazol-4-yl)-2-(3-methyl-4-((6-((1-(oxetan-3-yl)piperidin-4-yl)oxy)quinolin-4-yl)oxy)phenyl) acetamide] | < 2.5
Cc1cc(CC(=O)Nc2cnn(C(C)(C)C)c2)ccc1Oc1ccnc2ccc(S(=O)(=O)C3CCN(C)CC3)cc12 [Compound 97, N-(1-(tert-butyl)-1H-pyrazol-4-yl)-2-(3-methyl-4-((6-((1-methylpiperidin-4-yl)sulfonyl)quinolin-4-yl)oxy)phenyl)acetamide] | < 2.5
Cc1cc(CC(=O)Nc2cnn(C(C)(C)C)c2)ccc1Oc1ccnc2ccc(S(=O)(=O)C3CC3)cc12 [Compound 100, N-(1-(tert-butyl)-1H-pyrazol-4-yl)-2-(4-((6-(cyclopropylsulfonyl)quinolin-4-yl)oxy)-3-methylphenyl)acetamide] | < 2.5

The next lines start with the values.

IC50 [nM] | Compound
13.3 | CN1CCC(COc2ccc3ncnc(Oc4cnc(CC(=O)Nc5cnn(C(C)(C)C)c5)c(F)c4)c3c2)CC1 [Compound 61, N-(1-(tert-butyl)-1H-pyrazol-4-yl)-2-(3-fluoro-5-((6-((1-methylpiperidin-4-yl)methoxy)quinazolin-4-yl)oxy)pyridin-2-yl)acetamide]
37.3 | CC(C)(C)n1cc(NC(=O)Cc2ncc(Oc3ncnc4ccc(O[C@@H]5CCOC5)cc34)cc2F)cn1 [Compound 63, (R)-N-(1-(tert-butyl)-1H-pyrazol-4-yl)-2-(3-fluoro-5-((6-((tetrahydrofuran-3-yl)oxy)quinazolin-4-yl)oxy)pyridin-2-yl)acetamide]
< 2.5 | CC(C)(C)n1cc(NC(=O)Cc2ccc(Oc3ccnc4ccc(NS(C)(=O)=O)cc34)cc2F)cn1 [Compound 68, N-(1-(tert-butyl)-1H-pyrazol-4-yl)-2-(2-fluoro-4-((6-(methylsulfonamido)quinolin-4-yl)oxy)phenyl)acetamide]
< 2.5 | CC(C)(C)n1cc(NC(=O)Cc2ccc(Oc3ccnc4ccc(S(=N)(=O)C5CC5)cc34)cc2F)cn1 (stereo not drawn) [Compound 72, N-(1-(tert-butyl)-1H-pyrazol-4-yl)-2-(4-((6-(cyclopropanesulf-onimidoyl)quinolin-4-yl)oxy)-2-fluorophenyl) acetamide]
3.2 | CCS(=N)(=O)c1ccc2nccc(Oc3ccc(CC(=O)Nc4cnn(C(C)(C)C)c4)c(F)c3)c2c1 (stereo not drawn) [Compound 73, N-(1-(tert-butyl)-1H-pyrazol-4-yl)-2-(4-((6-(ethylsulfonimidoyl)quinolin-4-yl)oxy)-2-fluorophenyl) acetamide]
3.5 | CC(C)(C)n1cc(NC(=O)Cc2ncc(Oc3ccnc4ccc(OC5CCNCC5)cc34)cc2F)cn1 [Compound 80, N-(1-(tert-butyl)-1H-pyrazol-4-yl)-2-(3-fluoro-5-((6-(piperidin-4-yloxy)quinolin-4-yl)oxy)pyridin-2-yl)acetamide]
< 2.5 | CC(C)(C)n1cc(NC(=O)Cc2ccc(Oc3ccnc4ccc(OC5CCNCC5)cc34)cc2F)cn1 [Compound 81, N-(1-(tert-butyl)-1H-pyrazol-4-yl)-2-(2-fluoro-4-((6-(piperidin-4-yloxy)quinolin-4-yl)oxy)phenyl) acetamide]
< 2.5 | Cc1cc(CC(=O)Nc2cc(C(C)(C)C)n[nH]2)ccc1Oc1ccnc2ccc(S(C)(=O)=O)cc12 [Compound 87, N-(5-(tert-butyl)-1H-pyrazol-3-yl)-2-(3-methyl-4-((6-(methylsulfonyl)quinolin-4-yl)oxy)phenyl)acetamide]
< 2.5 | Cc1cc(CC(=O)Nc2cc(C(C)(C)C)n[nH]2)ccc1Oc1ccnc2ccc(S(C)(=N)=O)cc12 (stereo not drawn) [Compound 88, N-(5-(tert-butyl)-1H-pyrazol-3-yl)-2-(3-methyl-4-((6-(S-methylsulfonimidoyl)quinolin-4-yl)oxy)phenyl)acetamide]
2.9 | CC(C)(C)n1cc(NC(=O)Cc2ccc(Oc3ccnc4ccc(S(C)(=N)=O)cc34)c(Cl)c2)cn1 (stereo not drawn) [Compound 90, N-(1-(tert-butyl)-1H-pyrazol-4-yl)-2-(3-chloro-4-((6-(S-methylsulfonimidoyl)quinolin-4-yl)oxy)phenyl)acetamide]
< 2.5 | [2H]C([2H])([2H])c1cc(CC(=O)Nc2cnn(C(C)(C)C)c2)ccc1Oc1ccnc2ccc(S(C)(=O)=O)cc12 [Compound 93, N-(1-(tert-butyl)-1H-pyrazol-4-yl)-2-(3-(methyl-d3)-4-((6-(methylsulfonyl)quinolin-4-yl)oxy)phenyl)acetamide]
< 2.5 | Cc1cc(CC(=O)Nc2cnn(C(C)(C)C)c2)ccc1Oc1ccnc2ccc(S(=O)(=O)C3CCOCC3)cc12 [Compound 98, N-(1-(tert-butyl)-1H-pyrazol-4-yl)-2-(3-methyl-4-((6-((tetrahydro-2H-pyran-4-yl)sulfonyl)quinolin-4-yl)oxy)phenyl)acetamide]

Reference: US12624018B1, “Inhibitors of RIPK2 and medical uses thereof” (Odyssey Therapeutics, Inc., priority 2022, dated 2026)
